Results reported in ChEMBL document CHEMBL5724806, “Unraveling interindividual differences and functional consequences of gut microbial metabolism of immunosuppressants” (2024).

Assays:
Type in all cases: ADME
[1] = The drug is tested on Alloscardovia omnicolens strain: DSM21503 for biotransformation under anaerobic condition. The drug concentrations were measured over 6 timepoints collected between 0 and 12 hours of incubation by liquid-chromatography-coupled mass spectrometry (LC–MS); set-up: dose 5 uM, timepoint 0, 1.5, 3, 6, 9, 12 hours; settings: 5 µM
[2] = (§1) The drug is tested on the gut metagenome community of P-01 with ENA study accession number: PRJEB31790 for biotransformation under microaerobic condition. The drug concentrations were measured over 7 timepoints collected between 0 and 12 hours of incubation by liquid-chromatography-coupled mass spectrometry (LC–MS); set-up: dose 5 uM, timepoint 0, 0.75, 1.5, 3, 6, 9, 12 hours; settings: 5 µM
[3] = The drug is tested on Akkermansia muciniphila strain: DSM22959 for biotransformation under anaerobic condition. The drug concentrations were measured over 6 timepoints collected between 0 and 12 hours of incubation by liquid-chromatography-coupled mass spectrometry (LC–MS); set-up: dose 5 uM, timepoint 0, 1.5, 3, 6, 9, 12 hours; settings: 5 µM
[4] = The drug is tested on Dorea formicigenerans strain: DSM3992 for biotransformation under anaerobic condition. The drug concentrations were measured over 6 timepoints collected between 0 and 12 hours of incubation by liquid-chromatography-coupled mass spectrometry (LC–MS); set-up: dose 5 uM, timepoint 0, 1.5, 3, 6, 9, 12 hours; settings: 5 µM
[5] = The drug is tested on Blautia hansenii strain: DSM20583 for biotransformation under anaerobic condition. The drug concentrations were measured over 6 timepoints collected between 0 and 12 hours of incubation by liquid-chromatography-coupled mass spectrometry (LC–MS); set-up: dose 5 uM, timepoint 0, 1.5, 3, 6, 9, 12 hours; settings: 5 µM
[6] = The drug is tested on Bacteroides caccae strain: DSM19024 for biotransformation under anaerobic condition. The drug concentrations were measured over 6 timepoints collected between 0 and 12 hours of incubation by liquid-chromatography-coupled mass spectrometry (LC–MS); set-up: dose 5 uM, timepoint 0, 1.5, 3, 6, 9, 12 hours; settings: 5 µM
[7] = The drug is tested on Streptococcus salivarius strain: DSM20560 for biotransformation under microaerobic condition. The drug concentrations were measured over 6 timepoints collected between 0 and 12 hours of incubation by liquid-chromatography-coupled mass spectrometry (LC–MS); set-up: dose 5 uM, timepoint 0, 1.5, 3, 6, 9, 12 hours; settings: 5 µM
[8] = The drug is tested on Eubacterium eligens strain: DSM3376 for biotransformation under anaerobic condition. The drug concentrations were measured over 6 timepoints collected between 0 and 12 hours of incubation by liquid-chromatography-coupled mass spectrometry (LC–MS); set-up: dose 5 uM, timepoint 0, 1.5, 3, 6, 9, 12 hours; settings: lachnospira eligens, 5 µM
[9] = as §1, with “A-09” for “P-01”, “anaerobic” for “microaerobic”; set-up: dose 5 uM, timepoint 0, 0.75, 1.5, 3, 6, 9, 12 hours; settings: 5 µM
[10] = The drug is tested on Lactobacillus gasseri strain: DSM20243 for biotransformation under microaerobic condition. The drug concentrations were measured over 6 timepoints collected between 0 and 12 hours of incubation by liquid-chromatography-coupled mass spectrometry (LC–MS); set-up: dose 5 uM, timepoint 0, 1.5, 3, 6, 9, 12 hours; settings: 5 µM
[11] = The drug is tested on Lactobacillus ruminis strain: ATCC25644 for biotransformation under anaerobic condition. The drug concentrations were measured over 6 timepoints collected between 0 and 12 hours of incubation by liquid-chromatography-coupled mass spectrometry (LC–MS); set-up: dose 5 uM, timepoint 0, 1.5, 3, 6, 9, 12 hours; settings: ligilactobacillus ruminis, 5 µM
[12] = as §1, with “P-04” for “P-01”; set-up: dose 5 uM, timepoint 0, 0.75, 1.5, 3, 6, 9, 12 hours; settings: 5 µM
[13] = The drug is tested on Clostridium ramosum strain: DSM1402 for biotransformation under anaerobic condition. The drug concentrations were measured over 6 timepoints collected between 0 and 12 hours of incubation by liquid-chromatography-coupled mass spectrometry (LC–MS); set-up: dose 5 uM, timepoint 0, 1.5, 3, 6, 9, 12 hours; settings: thomasclavelia ramosa, 5 µM
[14] = as §1, with “A-10” for “P-01”, “anaerobic” for “microaerobic”; set-up: dose 5 uM, timepoint 0, 0.75, 1.5, 3, 6, 9, 12 hours; settings: 5 µM
[15] = The drug is tested on Gemella haemolysans strain: DSM107751 for biotransformation under microaerobic condition. The drug concentrations were measured over 6 timepoints collected between 0 and 12 hours of incubation by liquid-chromatography-coupled mass spectrometry (LC–MS); set-up: dose 5 uM, timepoint 0, 1.5, 3, 6, 9, 12 hours; settings: 5 µM
[16] = The drug is tested on Gemella haemolysans strain: DSM107751 for biotransformation under anaerobic condition. The drug concentrations were measured over 6 timepoints collected between 0 and 12 hours of incubation by liquid-chromatography-coupled mass spectrometry (LC–MS); set-up: dose 5 uM, timepoint 0, 1.5, 3, 6, 9, 12 hours; settings: 5 µM
[17] = The drug is tested on Eubacterium hallii strain: DSM3353 for biotransformation under anaerobic condition. The drug concentrations were measured over 6 timepoints collected between 0 and 12 hours of incubation by liquid-chromatography-coupled mass spectrometry (LC–MS); set-up: dose 5 uM, timepoint 0, 1.5, 3, 6, 9, 12 hours; settings: anaerobutyricum hallii, 5 µM
[18] = The drug is tested on Bacteroides xylanisolvens strain: HM 722 for biotransformation under anaerobic condition. The drug concentrations were measured over 6 timepoints collected between 0 and 12 hours of incubation by liquid-chromatography-coupled mass spectrometry (LC–MS); set-up: dose 5 uM, timepoint 0, 1.5, 3, 6, 9, 12 hours; settings: 5 µM
[19] = as §1, with “A-09” for “P-01”; set-up: dose 5 uM, timepoint 0, 0.75, 1.5, 3, 6, 9, 12 hours; settings: 5 µM
[20] = The drug is tested on Bacteroides fragilis strain: DSM2151 for biotransformation under anaerobic condition. The drug concentrations were measured over 6 timepoints collected between 0 and 12 hours of incubation by liquid-chromatography-coupled mass spectrometry (LC–MS); set-up: dose 5 uM, timepoint 0, 1.5, 3, 6, 9, 12 hours; settings: 5 µM
[21] = The drug is tested on Enterococcus faecalis strain: ATCC29212 for biotransformation under anaerobic condition. The drug concentrations were measured over 6 timepoints collected between 0 and 12 hours of incubation by liquid-chromatography-coupled mass spectrometry (LC–MS); set-up: dose 5 uM, timepoint 0, 1.5, 3, 6, 9, 12 hours; settings: 5 µM
[22] = The drug is tested on Lactobacillus fermentum strain: DSM20052 for biotransformation under microaerobic condition. The drug concentrations were measured over 6 timepoints collected between 0 and 12 hours of incubation by liquid-chromatography-coupled mass spectrometry (LC–MS); set-up: dose 5 uM, timepoint 0, 1.5, 3, 6, 9, 12 hours; settings: limosilactobacillus fermentum, 5 µM
[23] = The drug is tested on Streptococcus anginosus strain: DSM20563 for biotransformation under anaerobic condition. The drug concentrations were measured over 6 timepoints collected between 0 and 12 hours of incubation by liquid-chromatography-coupled mass spectrometry (LC–MS); set-up: dose 5 uM, timepoint 0, 1.5, 3, 6, 9, 12 hours; settings: 5 µM
[24] = The drug is tested on Clostridium scindens strain: DSM5676 for biotransformation under anaerobic condition. The drug concentrations were measured over 6 timepoints collected between 0 and 12 hours of incubation by liquid-chromatography-coupled mass spectrometry (LC–MS); set-up: dose 5 uM, timepoint 0, 1.5, 3, 6, 9, 12 hours; settings: 5 µM
[25] = The drug is tested on Lactobacillus fermentum strain: DSM20052 for biotransformation under anaerobic condition. The drug concentrations were measured over 6 timepoints collected between 0 and 12 hours of incubation by liquid-chromatography-coupled mass spectrometry (LC–MS); set-up: dose 5 uM, timepoint 0, 1.5, 3, 6, 9, 12 hours; settings: limosilactobacillus fermentum, 5 µM
[26] = The drug is tested on Lactobacillus ruminis strain: ATCC25644 for biotransformation under microaerobic condition. The drug concentrations were measured over 6 timepoints collected between 0 and 12 hours of incubation by liquid-chromatography-coupled mass spectrometry (LC–MS); set-up: dose 5 uM, timepoint 0, 1.5, 3, 6, 9, 12 hours; settings: ligilactobacillus ruminis, 5 µM
[27] = The drug is tested on Streptococcus sanguinis strain: DSM20567 for biotransformation under microaerobic condition. The drug concentrations were measured over 6 timepoints collected between 0 and 12 hours of incubation by liquid-chromatography-coupled mass spectrometry (LC–MS); set-up: dose 5 uM, timepoint 0, 1.5, 3, 6, 9, 12 hours; settings: 5 µM
[28] = The drug is tested on Parabacteroides merdae strain: DSM19495 for biotransformation under anaerobic condition. The drug concentrations were measured over 6 timepoints collected between 0 and 12 hours of incubation by liquid-chromatography-coupled mass spectrometry (LC–MS); set-up: dose 5 uM, timepoint 0, 1.5, 3, 6, 9, 12 hours; settings: 5 µM
[29] = as §1, with “A-06” for “P-01”, “anaerobic” for “microaerobic”; set-up: dose 5 uM, timepoint 0, 0.75, 1.5, 3, 6, 9, 12 hours; settings: 5 µM

| Compound | Bacterial Biotransformation [1] | Bacterial Biotransformation [2] | Bacterial Biotransformation [3] | Bacterial Biotransformation [4] | Bacterial Biotransformation [5] | Bacterial Biotransformation [6] | Bacterial Biotransformation [7] | Bacterial Biotransformation [8] | Bacterial Biotransformation [9] | Bacterial Biotransformation [10] | Bacterial Biotransformation [11] | Bacterial Biotransformation [12] | Bacterial Biotransformation [13] | Bacterial Biotransformation [14] | Bacterial Biotransformation [15] | Bacterial Biotransformation [16] | Bacterial Biotransformation [17] | Bacterial Biotransformation [18] | Bacterial Biotransformation [19] | Bacterial Biotransformation [20] | other results |
| --- | --- | --- | --- | --- | --- | --- | --- | --- | --- | --- | --- | --- | --- | --- | --- | --- | --- | --- | --- | --- | --- |
| CO[C@H]1C[C@@H]2CC[C@@H](C)[C@@](O)(O2)C(=O)C(=O)N2CCCC[C@H]2C(=O)O[C@H]([C@H](C)C[C@@H]2CC[C@@H](OCCO)[C@H](OC)C2)CC(=O)[C@H](C)/C=C(\C)[C@@H](O)[C@@H](OC)C(=O)[C@H](C)C[C@H](C)/C=C/C=C/C=C/1C [EVEROLIMUS] | Compound NOT metabolized | Compound NOT metabolized | Compound NOT metabolized | Compound metabolized | Compound metabolized | Compound NOT metabolized | Compound NOT metabolized | Compound NOT metabolized | Compound metabolized | Compound NOT metabolized | Compound NOT metabolized | Compound NOT metabolized | Compound NOT metabolized | Compound metabolized | Compound NOT metabolized | Compound NOT metabolized | Compound metabolized | Compound NOT metabolized | Compound metabolized | Compound NOT metabolized | Bacterial Biotransformation [21]: Compound metabolized; Bacterial Biotransformation [22]: Compound NOT metabolized; Bacterial Biotransformation [23]: Compound NOT metabolized; Bacterial Biotransformation [24]: Compound metabolized; Bacterial Biotransformation [25]: Compound NOT metabolized; Bacterial Biotransformation [26]: Compound NOT metabolized; Bacterial Biotransformation [27]: Compound NOT metabolized; Bacterial Biotransformation [28]: Compound NOT metabolized; Bacterial Biotransformation [29]: Compound metabolized |
| CNC(=C[N+](=O)[O-])NCCSCc1ccc(CN(C)C)o1 [RANITIDINE] | Compound NOT metabolized | Compound metabolized | Compound NOT metabolized | Compound NOT metabolized | Compound NOT metabolized | Compound NOT metabolized | Compound NOT metabolized | Compound metabolized | Compound metabolized | Compound NOT metabolized | Compound NOT metabolized | Compound NOT metabolized | Compound NOT metabolized | Compound NOT metabolized | Compound NOT metabolized | Compound NOT metabolized | Compound NOT metabolized | Compound metabolized | Compound metabolized | Compound NOT metabolized | Bacterial Biotransformation [21]: Compound NOT metabolized; Bacterial Biotransformation [22]: Compound NOT metabolized; Bacterial Biotransformation [23]: Compound NOT metabolized; Bacterial Biotransformation [24]: Compound NOT metabolized; Bacterial Biotransformation [25]: Compound NOT metabolized; Bacterial Biotransformation [26]: Compound NOT metabolized; Bacterial Biotransformation [27]: Compound NOT metabolized; Bacterial Biotransformation [28]: Compound NOT metabolized; Bacterial Biotransformation [29]: Compound metabolized |
| CCOC(=O)[C@H](CCc1ccccc1)N[C@@H](C)C(=O)N1[C@H](C(=O)O)C[C@@H]2CCC[C@@H]21 | Compound NOT metabolized | Compound NOT metabolized | Compound NOT metabolized | Compound NOT metabolized | Compound NOT metabolized | Compound NOT metabolized | Compound metabolized | Compound NOT metabolized | Compound NOT metabolized | Compound NOT metabolized | Compound NOT metabolized | Compound NOT metabolized | Compound NOT metabolized | Compound NOT metabolized | Compound NOT metabolized | Compound NOT metabolized | Compound NOT metabolized | Compound NOT metabolized | Compound NOT metabolized | Compound NOT metabolized | Bacterial Biotransformation [21]: Compound NOT metabolized; Bacterial Biotransformation [22]: Compound NOT metabolized; Bacterial Biotransformation [23]: Compound NOT metabolized; Bacterial Biotransformation [24]: Compound NOT metabolized; Bacterial Biotransformation [25]: Compound metabolized; Bacterial Biotransformation [26]: Compound NOT metabolized; Bacterial Biotransformation [27]: Compound NOT metabolized; Bacterial Biotransformation [28]: Compound NOT metabolized; Bacterial Biotransformation [29]: Compound NOT metabolized |
